Consider 21 molecules from PubChem BioAssay (NCI).

Several values for one entry are separate records, joined by “and”; a condition that tells them apart may be missing. Equal entries are not always repeated.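 Tested at 5 concentrations; 48 h exposure; 96-well plates; endpoints linearly interpolated, else capped at highest concentration. Here, GI50 denotes the concentration required for 50% inhibition of growth. TGI: concentration producing complete growth inhibition.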

One assay has as its system A498 renal. As to the kind of experiment: inhibition of tumour cell growth, NCI panel, 48 h.
For the molecule `Nc1nccc2c1ccn2-c1ccc(NC(=O)c2ccc(N3CCOCC3)c(C(F)(F)F)c2)cc1`, the GI50 was 0.402 µM and the TGI worked out at 2.94 µM.
With `Cc1[nH]c2ccccc2c1-c1cc(-c2cc(-c3c(C)[nH]c4ccccc34)on2)no1`, the TGI is greater than 100 µM.
As for `Cn1cnc([N+](=O)[O-])c1S(=O)(=O)Oc1ccccc1`, the GI50 is 16.8 µM and the TGI amounted to 38.1 µM.
Consider `COc1cc(C2c3cc4c(cc3C(O)C(CO)C2CO)OCO4)cc(OC)c1OC` (centres undefined), for which the GI50 is 0.321 µM.
As for `O=c1n(-c2ccccc2)c(=O)n2n1C1C=CC2C2C(C1)C2(Cl)Cl` (centres undefined), the TGI is greater than 100 µM.
`CCCNC(=S)/N=C/c1c(O)c2ccccc2[nH]c1=O`: the TGI is greater than 100 µM.
In turn, `COC1C(O)=C2C(=O)O/C(C)=C/C=C/C=C/C=C\CC(c3ccccc3)NC(=O)\C=C/C=C\C=C\C=C\[C@@]2(C)[C@@H]1O` (some centres undefined) displayed a TGI of 0.318 µM.
On to `COc1ccc(-c2oc(=O)ccc2-c2cc(OC)c(OC)c(OC)c2)cc1F`, for which the GI50 was 25.1 µM and the TGI was 92.9 µM.
As to `O=C(c1ccc(F)c(F)c1Nc1ccc(I)cc1F)N1CC(O)([C@@H]2CCCCN2)C1`, the GI50 is < 0.0194 µM and 0.0422 µM; the TGI was 0.134 µM and 0.294 µM.
`Oc1cc(O)c2c(c1)OC(c1ccc(O)c(O)c1)C(OC1(c3cc(O)c(O)c(O)c3)Oc3cc(O)cc(O)c3C(O)C1O)C2` (centres undefined) came in with a TGI greater than 49.9 µM.
As for `CCOc1ccc2nc(S/C(=C/C=C(C#N)C#N)c3ccc(C)cc3)sc2c1`, the GI50 is 42.3 µM and the TGI is greater than 100 µM.
Regarding `COc1ccc(NC(=O)/C(N=O)=C(/C)O)cc1`, the TGI was greater than 100 µM.
`CC(=O)OC12c3ccccc3-c3ccccc3C1C1C(=O)N(C)C(=O)C12Cl` (centres undefined) gave a TGI greater than 10 µM.
In the case of `CCN(CC)CCOc1ccc(/C=C2\CC3C4CC=C5C[C@@H](O)CC[C@]5(C)C4CC[C@]3(C)C2=O)cc1OC` (some centres undefined), the GI50 is 2.84 µM and the TGI is 9.84 µM.
Consider `COc1ccc(-c2cc(-c3ccccc3)c(C#N)c(=O)n2C2OC(CO)C(O)C(O)C2O)cc1` (centres undefined), for which the TGI is greater than 100 µM.
For `O=C(O)CSc1n[nH]c(-c2ccccc2)n1`, the TGI is greater than 100 µM.
In the case of `CCc1cccc(C)c1NC(=O)C(=O)Cc1nc2ccccc2o1`, the TGI is greater than 100 µM.
In turn, `O=C(O)[C@H](NS(=O)(=O)c1ccc2ccccc2c1)c1ccccc1` gave a TGI greater than 100 µM.
The same measure, in the same setting: the figure for `CCOc1ccc2c(c1)[n+]([O-])c(-c1ccccc1Cl)c(N)[n+]2[O-]` is greater than 100 µM; for `O=C1c2ccccc2C2(O)c3cc4ccccc4cc3OC12O` (centres undefined) it is greater than 100 µM.
As for `CN(C)c1c([O-])c(=[N+](C)C)c1=O`, the TGI was greater than 100 µM.

In a further assay the test system is A549 NSCLC. As to the kind of experiment: inhibition of tumour cell growth, NCI panel, 48 h.
For the molecule `Nc1nccc2c1ccn2-c1ccc(NC(=O)c2ccc(N3CCOCC3)c(C(F)(F)F)c2)cc1`, the GI50 is 1.39 µM and the TGI is 15.3 µM.
As to `Cc1[nH]c2ccccc2c1-c1cc(-c2cc(-c3c(C)[nH]c4ccccc34)on2)no1`, the TGI was greater than 100 µM.
In the case of `Cn1cnc([N+](=O)[O-])c1S(=O)(=O)Oc1ccccc1`, the GI50 is 38.1 µM and the TGI was greater than 100 µM.
`COc1cc(C2c3cc4c(cc3C(O)C(CO)C2CO)OCO4)cc(OC)c1OC` (centres undefined): the GI50 was 1.64 µM and the TGI is greater than 100 µM.
For the molecule `O=c1n(-c2ccccc2)c(=O)n2n1C1C=CC2C2C(C1)C2(Cl)Cl` (centres undefined), the TGI is greater than 100 µM.
The molecule `CCCNC(=S)/N=C/c1c(O)c2ccccc2[nH]c1=O` gave a TGI greater than 100 µM.
On to `COC1C(O)=C2C(=O)O/C(C)=C/C=C/C=C/C=C\CC(c3ccccc3)NC(=O)\C=C/C=C\C=C\C=C\[C@@]2(C)[C@@H]1O` (some centres undefined), for which the TGI is 0.0445 µM.
On to `COc1ccc(-c2oc(=O)ccc2-c2cc(OC)c(OC)c(OC)c2)cc1F`, for which the GI50 was 9.91 µM and the TGI is greater than 100 µM.
Consider `O=C(c1ccc(F)c(F)c1Nc1ccc(I)cc1F)N1CC(O)([C@@H]2CCCCN2)C1`, for which the GI50 is 0.25 µM and 0.48 µM; the TGI is 17 µM and > 10 µM.
`Oc1cc(O)c2c(c1)OC(c1ccc(O)c(O)c1)C(OC1(c3cc(O)c(O)c(O)c3)Oc3cc(O)cc(O)c3C(O)C1O)C2` (centres undefined) displayed a TGI greater than 71.7 µM.
Turning to `CCOc1ccc2nc(S/C(=C/C=C(C#N)C#N)c3ccc(C)cc3)sc2c1`, the GI50 was 46.7 µM and the TGI was greater than 100 µM.
Molecule `COc1ccc(NC(=O)/C(N=O)=C(/C)O)cc1` gave a TGI greater than 100 µM.
Regarding `CCN(CC)CCOc1ccc(/C=C2\CC3C4CC=C5C[C@@H](O)CC[C@]5(C)C4CC[C@]3(C)C2=O)cc1OC` (some centres undefined), the GI50 was 11.6 µM and the TGI amounted to 26.1 µM.
In turn, `COc1ccc(-c2cc(-c3ccccc3)c(C#N)c(=O)n2C2OC(CO)C(O)C(O)C2O)cc1` (centres undefined) displayed a TGI greater than 100 µM.
In turn, `O=C(O)CSc1n[nH]c(-c2ccccc2)n1` displayed a TGI greater than 100 µM.
Same read-out and setting: the figure for `CCOc1ccc2c(c1)[n+]([O-])c(-c1ccccc1Cl)c(N)[n+]2[O-]` is greater than 100 µM; for `O=C1c2ccccc2C2(O)c3cc4ccccc4cc3OC12O` (centres undefined) it is greater than 100 µM.
`CN(C)c1c([O-])c(=[N+](C)C)c1=O` registered a TGI greater than 100 µM.

The test system of another assay is ACHN renal. As to the kind of experiment: inhibition of tumour cell growth, NCI panel, 48 h.
Consider `Nc1nccc2c1ccn2-c1ccc(NC(=O)c2ccc(N3CCOCC3)c(C(F)(F)F)c2)cc1`, for which the GI50 was 0.928 µM and the TGI was determined as 16.3 µM.
Turning to `Cc1[nH]c2ccccc2c1-c1cc(-c2cc(-c3c(C)[nH]c4ccccc34)on2)no1`, the TGI was greater than 100 µM.
For the molecule `Cn1cnc([N+](=O)[O-])c1S(=O)(=O)Oc1ccccc1`, the GI50 was 1.8 µM and the TGI turned out to be 3.37 µM.
For `COc1cc(C2c3cc4c(cc3C(O)C(CO)C2CO)OCO4)cc(OC)c1OC` (centres undefined), in that order: 8.09 µM and greater than 100 µM.
Take `O=c1n(-c2ccccc2)c(=O)n2n1C1C=CC2C2C(C1)C2(Cl)Cl` (centres undefined): the TGI is greater than 100 µM.
In the case of `CCCNC(=S)/N=C/c1c(O)c2ccccc2[nH]c1=O`, the TGI is greater than 100 µM.
Regarding `COC1C(O)=C2C(=O)O/C(C)=C/C=C/C=C/C=C\CC(c3ccccc3)NC(=O)\C=C/C=C\C=C\C=C\[C@@]2(C)[C@@H]1O` (some centres undefined), the TGI was found to be 0.122 µM.
Consider `COc1ccc(-c2oc(=O)ccc2-c2cc(OC)c(OC)c(OC)c2)cc1F`, for which the GI50 was 25.2 µM and the TGI is greater than 100 µM.
